# Values quoted from earlier work in patent publication US20240408573A1, “ACIDIC GAS ADSORBENT AND ACIDIC GAS ADSORPTION DEVICE” (NITTO DENKO CORPORATION, priority 2021, published 2024).
# What was measured:
# [1] = safety index in terms of handling
# [2] = safety index in terms of handling; remark: listed apart in the source
# [3] = safety index in terms of handling; remark: listed apart in the source
compound,measurement,setting,value
"NCCNCCNCCN [TETA, triethylenetetramine]",Skin irritation test (rabbit),rabbits,Strong irritant
same,Poisonous and Deleterious Substances Control Act,[1],Deleterious
same,Fire Service Act,[2],Hazardous material
same,Mutagenicity test (Ames test),[3],Positive
